# Laboratory results taken from patent US8343961B2, “Substituted heterocyclic compounds” (ArQule, Inc., priority 2009, dated 2013).
# Molecular target: T1, EphA8 (Homo sapiens, UniProt P29322)
# T1 sequence (P29322 28-1005): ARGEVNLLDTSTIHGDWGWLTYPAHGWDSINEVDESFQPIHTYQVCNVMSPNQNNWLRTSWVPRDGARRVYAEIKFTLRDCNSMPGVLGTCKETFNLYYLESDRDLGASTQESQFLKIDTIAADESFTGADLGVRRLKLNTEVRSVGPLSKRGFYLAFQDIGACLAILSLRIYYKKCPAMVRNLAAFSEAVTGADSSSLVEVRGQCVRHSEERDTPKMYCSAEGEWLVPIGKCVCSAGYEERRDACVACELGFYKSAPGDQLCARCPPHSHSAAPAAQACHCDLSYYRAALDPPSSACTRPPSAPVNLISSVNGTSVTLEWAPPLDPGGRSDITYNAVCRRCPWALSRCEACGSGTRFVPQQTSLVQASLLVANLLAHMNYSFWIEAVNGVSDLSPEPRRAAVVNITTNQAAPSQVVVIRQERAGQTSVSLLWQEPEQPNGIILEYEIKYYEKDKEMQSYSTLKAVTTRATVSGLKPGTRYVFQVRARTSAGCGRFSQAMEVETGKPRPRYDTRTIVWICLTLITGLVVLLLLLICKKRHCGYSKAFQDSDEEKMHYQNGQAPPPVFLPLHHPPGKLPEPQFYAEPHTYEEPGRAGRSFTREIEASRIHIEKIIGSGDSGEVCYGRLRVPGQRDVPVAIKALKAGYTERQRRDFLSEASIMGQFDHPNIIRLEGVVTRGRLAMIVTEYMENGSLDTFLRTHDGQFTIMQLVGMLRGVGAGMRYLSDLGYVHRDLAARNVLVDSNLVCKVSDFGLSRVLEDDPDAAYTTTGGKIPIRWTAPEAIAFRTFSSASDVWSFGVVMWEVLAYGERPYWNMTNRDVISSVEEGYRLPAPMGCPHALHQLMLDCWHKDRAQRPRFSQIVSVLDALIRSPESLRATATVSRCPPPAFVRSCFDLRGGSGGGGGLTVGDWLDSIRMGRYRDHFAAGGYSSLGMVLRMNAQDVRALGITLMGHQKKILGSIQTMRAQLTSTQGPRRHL
# Assay: EphA8 Kinase Activity Assay
# Format: biochemical
# Conditions: read-out: EphA8, % INH, at 30 uM
# Description: Nunc Maxisorb plates are coated with streptavidin by overnight incubation with 100 μL per well of 1 μg/ml Streptavidin in DPBS. Prior to the start of the experiment, the plates are washed with TBST (3×200 μL) and blocked for at least 1 hour by adding 150 μL of 5% BSA/TBST. The plates are washed with TBST (3×200 μL/well) and left dry immediately before the capture step.
# The test articles and control (Staurosporine) are prepared using the following assay buffer @ 3× desired final concentration (50 mM Tris-HCl, 0.02 mg/ml BSA, 10 mM MgCl2, 0.1 mM Na3VO4, 1 mM EGTA, 12.5 μM ATP, 0.01% NP-40, 1 mM DTT in 10% glycerol/water). In a reaction plate are added rapidly 20 μl test article (or control) and 20 μl EphA8 (0.12 ng/μl final concentration). The plate is incubated for 15 minutes. To the reaction plate is added 20 μl of Pyk-2 (0.75 ng/μl final concentration). The plate is incubated at room temperature for one hour. From the reaction plate, 50 μl is transferred to the streptavidin coated plate. The capture plate is incubated at room temperature for 30 minutes, then washed 6× with TBST. To the capture plate is added 100 μL/well of Cell Signaling anti-phospho tyrosine at a dilution of 1:3000 in 2% BSA/TBST. The plate is incubated for one hour at room temperature then washed 6× with TBST. To the capture plate is added 100 μL/well of Alkaline Phosphatase Tagged Goat anti Mouse Antibody at a dilution of 1:4000 in 2% BSA/TBST. The plate is incubated for one hour at room temperature then washed 6× with TBST. The fluorescent readout is initiated by the addition of 100 μl/well of Attophos reagent (6 mg/10 mL). The reading is done on the Perkin Elmer Envision system.
row,Structure (SMILES),inhibition at 30 µM [%]
1,"COc1cccc(CN2CCN(c3nc(N)nc4[nH]ncc34)Cc3ccccc32)c1 [Compound 1, 4-[1-(3-methoxybenzyl)-1,2,3,5-tetrahydro-4H-1,4-benzodiazepin-4-yl]-1H-pyrazolo[3,4-d]pyrimidin-6-amine]",50 to 79
2,"COc1cccc(CN2CCN(c3nc(N)nc4[nH]cnc34)Cc3ccccc32)c1 [Compound 2, 6-[1-(3-methoxybenzyl)-1,2,3,5-tetrahydro-4H-1,4-benzodiazepin-4-yl]-9H-purin-2-amine]",< 50
3,"CC(C)c1ccc(CN2CCN(c3nc(N)nc4[nH]cnc34)Cc3ccccc32)cc1 [Compound 3, 6-[1-(4-isopropylbenzyl)-1,2,3,5-tetrahydro-4H-1,4-benzodiazepin-4-yl]-9H-purin-2-amine]",< 50
4,"CC(C)c1ccc(CN2CCN(c3nc(N)nc4[nH]ncc34)Cc3ccccc32)cc1 [Compound 4, 4-[1-(4-isopropylbenzyl)-1,2,3,5-tetrahydro-4H-1,4-benzodiazepin-4-yl]-1H-pyrazolo[3,4-d]pyrimidin-6-amine]",< 50
5,"Nc1nc(N2CCN(Cc3cccc(F)c3)c3ccccc3C2)c2cn[nH]c2n1 [Compound 6, 4-[1-(3-fluorobenzyl)-1,2,3,5-tetrahydro-4H-1,4-benzodiazepin-4-yl]-1H-pyrazolo[3,4-d]pyrimidin-6-amine]",50 to 79
6,"Nc1nc(N2CCN(CCCc3cccc(Cl)c3)c3ccccc3C2)c2nc[nH]c2n1 [Compound 7, 6-{1-[3-(3-chlorophenyl)propyl]-1,2,3,5-tetrahydro-4H-1,4-benzodiazepin-4-yl}-9H-purin-2-amine]",< 50
7,"COc1ccccc1CN1CCN(c2nc(N)nc3[nH]cnc23)Cc2ccccc21 [Compound 9, 6-[1-(2-methoxybenzyl)-1,2,3,5-tetrahydro-4H-1,4-benzodiazepin-4-yl]-9H-purin-2-amine]",< 50
8,"COc1ccccc1CN1CCN(c2nc(N)nc3[nH]ncc23)Cc2ccccc21 [Compound 10, 4-[1-(2-methoxybenzyl)-1,2,3,5-tetrahydro-4H-1,4-benzodiazepin-4-yl]-1H-pyrazolo[3,4-d]pyrimidin-6-amine]",< 50
9,"Cc1ccccc1CN1CCN(c2nc(N)nc3[nH]cnc23)Cc2ccccc21 [Compound 11, 6-[1-(2-methylbenzyl)-1,2,3,5-tetrahydro-4H-1,4-benzodiazepin-4-yl]-9H-purin-2-amine]",< 50
10,"Cc1ccccc1CN1CCN(c2nc(N)nc3[nH]ncc23)Cc2ccccc21 [Compound 12, 4-[1-(2-methylbenzyl)-1,2,3,5-tetrahydro-4H-1,4-benzodiazepin-4-yl]-1H-pyrazolo[3,4-d]pyrimidin-6-amine]",< 50
11,"Nc1nc(N2CCN(Cc3ccccc3Cl)c3ccccc3C2)c2nc[nH]c2n1 [Compound 13, 6-[1-(2-chlorobenzyl)-1,2,3,5-tetrahydro-4H-1,4-benzodiazepin-4-yl]-9H-purin-2-amine]",< 50
12,"Nc1nc(N2CCN(Cc3ccc(F)cc3)c3ccccc3C2)c2nc[nH]c2n1 [Compound 15, 6-[1-(4-fluorobenzyl)-1,2,3,5-tetrahydro-4H-1,4-benzodiazepin-4-yl]-9H-purin-2-amine]",< 50
13,"Nc1nc(N2CCN(Cc3ccc(F)cc3)c3ccccc3C2)c2cn[nH]c2n1 [Compound 16, 4-[1-(4-fluorobenzyl)-1,2,3,5-tetrahydro-4H-1,4-benzodiazepin-4-yl]-1H-pyrazolo[3,4-d]pyrimidin-6-amine]",50 to 79
14,"Nc1nc(N2CCN(Cc3cccc4ccccc34)c3ccccc3C2)c2nc[nH]c2n1 [Compound 17, 6-[1-(1-naphthylmethyl)-1,2,3,5-tetrahydro-4H-1,4-benzodiazepin-4-yl]-9H-purin-2-amine]",50 to 79
15,"Nc1nc(N2CCN(Cc3cccc(C(F)(F)F)c3)c3ccccc3C2)c2nc[nH]c2n1 [Compound 20, 6-{1-[3-(trifluoromethyl)benzyl]-1,2,3,5-tetrahydro-4H-1,4-benzodiazepin-4-yl}-9H-purin-2-amine]",50 to 79
16,"Nc1nc(N2CCN(Cc3cccc(Cl)c3)c3ccccc3C2)c2nc[nH]c2n1 [Compound 24, 6-[1-(3-chlorobenzyl)-1,2,3,5-tetrahydro-4H-1,4-benzodiazepin-4-yl]-9H-purin-2-amine]",50 to 79
17,"Nc1nc(N2CCN(Cc3cccc(Cl)c3)c3ccccc3C2)c2cn[nH]c2n1 [Compound 25, 4-[1-(3-chlorobenzyl)-1,2,3,5-tetrahydro-4H-1,4-benzodiazepin-4-yl]-1H-pyrazolo[3,4-d]pyrimidin-6-amine]",< 50
18,"Cc1ccc(CN2CCN(c3nc(N)nc4[nH]cnc34)Cc3ccccc32)cc1 [Compound 26, 6-[1-(4-methylbenzyl)-1,2,3,5-tetrahydro-4H-1,4-benzodiazepin-4-yl]-9H-purin-2-amine]",< 50
19,"COc1ccc(CN2CCN(c3nc(N)nc4[nH]cnc34)Cc3ccccc32)cc1OC [Compound 27, 6-[1-(3,4-dimethoxybenzyl)-1,2,3,5-tetrahydro-4H-1,4-benzodiazepin-4-yl]-9H-purin-2-amine]",< 50
20,"Nc1nc(N2CCN(Cc3ccc(Cl)cc3Cl)c3ccccc3C2)c2nc[nH]c2n1 [Compound 31, 6-[1-(2,4-dichlorobenzyl)-1,2,3,5-tetrahydro-4H-1,4-benzodiazepin-4-yl]-9H-purin-2-amine]",< 50
21,"Cc1cccc(CN2CCN(c3nc(N)nc4[nH]cnc34)Cc3ccccc32)c1 [Compound 33, 6-[1-(3-methylbenzyl)-1,2,3,5-tetrahydro-4H-1,4-benzodiazepin-4-yl]-9H-purin-2-amine]",< 50
22,"Cc1cccc(CN2CCN(c3nc(N)nc4[nH]ncc34)Cc3ccccc32)c1 [Compound 34, 4-[1-(3-methylbenzyl)-1,2,3,5-tetrahydro-4H-1,4-benzodiazepin-4-yl]-1H-pyrazolo[3,4-d]pyrimidin-6-amine]",< 50
23,"COc1ccc(OC)c(CN2CCN(c3nc(N)nc4[nH]cnc34)Cc3ccccc32)c1 [Compound 35, 6-[1-(2,5-dimethoxybenzyl)-1,2,3,5-tetrahydro-4H-1,4-benzodiazepin-4-yl]-9H-purin-2-amine]",< 50
24,"Nc1nc(N2CCN(Cc3ccc(F)cc3F)c3ccccc3C2)c2nc[nH]c2n1 [Compound 37, 6-[1-(2,4-difluorobenzyl)-1,2,3,5-tetrahydro-4H-1,4-benzodiazepin-4-yl]-9H-purin-2-amine]",< 50
25,"Nc1nc(N2CCN(Cc3ccc(F)cc3F)c3ccccc3C2)c2cn[nH]c2n1 [Compound 38, 4-[1-(2,4-difluorobenzyl)-1,2,3,5-tetrahydro-4H-1,4-benzodiazepin-4-yl]-1H-pyrazolo[3,4-d]pyrimidin-6-amine]",< 50
26,"Nc1nc(N2CCN(CCCc3ccccc3)c3ccccc3C2)c2nc[nH]c2n1 [Compound 40, 6-[1-(3-phenylpropyl)-1,2,3,5-tetrahydro-4H-1,4-benzodiazepin-4-yl]-9H-purin-2-amine]",< 50
27,"Nc1nc(N2CCN(CCCc3ccccc3)c3ccccc3C2)c2cn[nH]c2n1 [Compound 41, 4-[1-(3-phenylpropyl)-1,2,3,5-tetrahydro-4H-1,4-benzodiazepin-4-yl]-1H-pyrazolo[3,4-d]pyrimidin-6-amine]",< 50
28,"Nc1nc(N2CCN(Cc3ccc(Cl)c(Cl)c3)c3ccccc3C2)c2nc[nH]c2n1 [Compound 42, 6-[1-(3,4-dichlorobenzyl)-1,2,3,5-tetrahydro-4H-1,4-benzodiazepin-4-yl]-9H-purin-2-amine]",< 50
